Source: ChEMBL document CHEMBL4024702, “Covalent Modifiers: A Chemical Perspective on the Reactivity of α,β-Unsaturated Carbonyls with Thiols via Hetero-Michael Addition Reactions” (J Med Chem, 2017)

What was measured:
518A2 = test: Cytotoxicity against human 518A2 cells assessed as reduction in cell viability after 96 hrs by SRB asssay; format: functional, cell-based; conditions: 518A2, 96 h
A-431 = test: Cytotoxicity against human A431 cells assessed as reduction in cell viability after 96 hrs by SRB asssay; format: functional, cell-based; conditions: A-431, 96 h
A549 = test: Cytotoxicity against human A549 cells assessed as reduction in cell viability after 96 hrs by SRB asssay; format: functional, cell-based; conditions: A549, 96 h
HT-29 = test: Cytotoxicity against human HT-29 cells assessed as reduction in cell viability after 96 hrs by SRB asssay; format: functional, cell-based; conditions: HT-29, 96 h
MCF7 = test: Cytotoxicity against human MCF7 cells assessed as reduction in cell viability after 96 hrs by SRB asssay; format: functional, cell-based; conditions: MCF7, 96 h
[1] = Glutathione reactivity of the compound in DMSO and phosphate buffer assessed as second order rate constant for adduct formation
Tetrahymena pyriformis = test: Toxicity in Tetrahymena pyriformis assessed as growth inhibition after 48 hrs
[2] = Thiol reactivity of the compound in PBS buffer assessed as pseudo-first order rate constant for adduct formation in presence of 4-nitrobenzenethiol at pH 7.4 by stop-flow spectrophotometric analysis
[3] = Thiol reactivity of the compound in DMSO/PBS buffer assessed as adduct formation by measuring half life of parent compound by 1H NMR analysis; format: physicochemical
[4] = Thiol reactivity of the compound in PBS buffer assessed as adduct formation at 100 to 200 uM at pH 7.4 by UV-visible spectroscopic analysis
[5] = Glutathione reactivity of the compound in PBS buffer assessed as rate constant for 1,4-adduct formation at pH 7.4
[6] = Glutathione reactivity of the compound in acetonitrile to tris-HCL buffer at pH 7.4 by NMR spectroscopic analysis
[7] = DTT reactivity of the compound in acetonitrile to tris-HCL buffer at pH 7.4 by NMR spectroscopic analysis
Papain (Carica papaya) = target: T1, Papain (Carica papaya) (UniProt P00784); test: Irreversible inhibition of Carica papaya papain assessed as ratio of Kinact to Ki
T1 sequence (whole entry): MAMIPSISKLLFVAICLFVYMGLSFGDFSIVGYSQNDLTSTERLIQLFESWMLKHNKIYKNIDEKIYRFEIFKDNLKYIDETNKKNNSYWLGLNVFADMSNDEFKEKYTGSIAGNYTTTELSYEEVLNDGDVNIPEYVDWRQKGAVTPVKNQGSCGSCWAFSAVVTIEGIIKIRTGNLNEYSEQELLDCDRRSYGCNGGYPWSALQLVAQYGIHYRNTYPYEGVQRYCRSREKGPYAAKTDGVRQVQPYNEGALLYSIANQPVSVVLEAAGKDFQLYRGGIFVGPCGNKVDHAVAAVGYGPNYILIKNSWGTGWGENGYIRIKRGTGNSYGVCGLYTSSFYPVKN

[8] = Glutathione reactivity of the compound in DMSO/HEPES buffer assessed as second order rate constant for adduct formation at pH 7.4 by spectroscopic analysis
[9] = Cysteamine reactivity of the compound in TRIS-HCL assessed as second order rate constant at 40 uM and pH 7.4 by stopped-flow assay
[10] = Cysteine reactivity of the compound assessed as second order rate constant by 1H NMR analysis
[11] = Thiol reactivity of the compound in PBS/DMSO buffer assessed as pseudo-first order rate constant for adduct formation

CC1=CC[C@]23O[C@@]2(C)CC[C@@H]2[C@H](OC(=O)[C@H]2CN2CCCCC2)[C@@H]13
IC50 (518A2): 14.3 µM
IC50 (A-431): 18.9 µM
IC50 (A549): 4.76 µM
IC50 (HT-29): 8.1 µM
IC50 (MCF7): 16.9 µM

C=C(C)C(=O)OC
K [1]: 0.072 M⁻¹ s⁻¹
EC50 (Tetrahymena pyriformis): 16600 µM

CC1=CC[C@]23O[C@@]2(C)CC[C@@H]2[C@H](OC(=O)[C@H]2CSc2ccccc2C(=O)O)[C@@H]13
IC50 (518A2): 16.9 µM
IC50 (A-431): 13.6 µM
IC50 (A549): 10.1 µM
IC50 (HT-29): 17.8 µM
IC50 (MCF7): 16.9 µM

O=[N+]([O-])c1ccc(Sc2cc(O)ccc2O)cc1
K [2]: 1.5 ×10³ /s

N#CC(c1ccncc1)C(SCCO)C1CC1 (stereo not drawn)
t1/2 [3]: 11.9 min

Cc1cc(O)cc(Sc2ccc([N+](=O)[O-])cc2)c1O
K [2]: 3.2 ×10² /s

Cc1cc(O)c(C)c(Sc2ccc([N+](=O)[O-])cc2)c1O
K [2]: 7.3 ×10⁻¹ /s

N#CC(C(N)=O)C(SCCO)c1ccc(-n2ccnc2)cc1 (stereo not drawn)
Kd [4]: 1300 µM

CC(O)C(CC1NC(C(=O)O)CS1)SC[C@H](C)C(=O)O (stereo partly drawn)
K [5]: 1.1 M⁻¹ s⁻¹

O=C(/C=C/c1ccccc1O)/C=C/c1ccccc1O
Activity [6]: 5 M⁻¹ s⁻¹
DTT second-order rate constant [7]: 2.5 M⁻¹ s⁻¹

COC(=O)/C=C/CNC(=O)c1cc(-c2ccc(C)cc2)no1
Ratio (Papain (Carica papaya)): 1.2 M⁻¹ s⁻¹

N#Cc1ccc(C(C#N)C(SCCO)c2ccccc2)cc1 (stereo not drawn)
t1/2 [3]: 8.9 min

CCN(CC)c1ccc2cc(C(CC=O)SC[C@H](NC(=O)CC[C@H](N)C(=O)O)C(=O)NCC(=O)O)c(=O)oc2c1 (stereo partly drawn)
K [8]: 0.41 M⁻¹ s⁻¹

CC1=CC[C@]23O[C@@]2(C)CC[C@@H]2[C@H](OC(=O)[C@H]2CN(C)C)[C@@H]13
IC50 (518A2): 5.54 µM
IC50 (A-431): 5.19 µM
IC50 (A549): 1.95 µM
IC50 (HT-29): 10.8 µM
IC50 (MCF7): 1.85 µM

COc1ccc(C(=O)C(C(SCCN)c2ccc(OC)c(OC)c2)C(F)(F)F)c(OC)c1 (stereo not drawn)
K [9]: 17 M⁻¹ s⁻¹

N#CC(C(N)=O)C(SCCO)c1cccc2[nH]ccc12 (stereo not drawn)
Kd [4]: 6200 µM

CCN(CC)c1ccc2cc(C(SC[C@H](NC(=O)CC[C@H](N)C(=O)O)C(=O)NCC(=O)O)C(C(C)=O)C(C)=O)c(=O)oc2c1 (stereo partly drawn)
K [8]: 12 M⁻¹ s⁻¹

CC1=CC[C@]23O[C@@]2(C)CC[C@@H]2[C@H](OC(=O)[C@H]2CN2CCSCC2)[C@@H]13
IC50 (518A2): 13.2 µM
IC50 (A-431): 16.9 µM
IC50 (A549): 4.76 µM
IC50 (HT-29): 16.2 µM
IC50 (MCF7): 13.4 µM

C/C=C(\C)C=O [2-methyl-(E)-2-butenal]
K [1]: 0.474 M⁻¹ s⁻¹
EC50 (Tetrahymena pyriformis): 1380 µM

O=C1/C(=C/c2ccccc2)CC/C1=C\c1ccccc1
Activity [6]: 9.3 M⁻¹ s⁻¹
DTT second-order rate constant [7]: 2.3 M⁻¹ s⁻¹

O=C(/C=C/c1ccccc1)/C=C/c1ccccc1
Activity [6]: 0.15 M⁻¹ s⁻¹
DTT second-order rate constant [7]: 0.42 M⁻¹ s⁻¹

C=CC(=O)CCC
K [1]: 1170 M⁻¹ s⁻¹
EC50 (Tetrahymena pyriformis): 22 µM

CCN(CC)c1ccc2cc(C(CC(C)=O)SC[C@H](NC(=O)CC[C@H](N)C(=O)O)C(=O)NCC(=O)O)c(=O)oc2c1 (stereo partly drawn)
K [8]: 0.007 M⁻¹ s⁻¹

COc1ccc(C(=O)C(C(SCCN)c2ccc(OC)c(OC)c2)[N+](=O)[O-])c(OC)c1 (stereo not drawn)
K [9]: 750 M⁻¹ s⁻¹

CCCCCC#CC=O
K [1]: 487 M⁻¹ s⁻¹
EC50 (Tetrahymena pyriformis): 19 µM

N[C@@H](CCC(=O)N[C@@H](CSCCC=O)C(=O)NCC(=O)O)C(=O)O
K [5]: 120 M⁻¹ s⁻¹

CC1=CC[C@]23O[C@@]2(C)CC[C@@H]2[C@H](OC(=O)[C@H]2CSCCO)[C@@H]13
IC50 (518A2): 16.9 µM
IC50 (A-431): 12.8 µM
IC50 (A549): 12.8 µM
IC50 (HT-29): 18.6 µM
IC50 (MCF7): 17.3 µM

C=C(C)C(=O)O[C@H]1CC2=C[C@@H](C[C@@]3(C)O[C@H]3[C@H]3OC(=O)C(CSC[C@H](N)C(=O)O)[C@@H]31)OC2=O (stereo partly drawn)
K [10]: 1.7 M⁻¹ s⁻¹

N#CC(C(N)=O)C(SCCO)c1ccccc1 (stereo not drawn)
t1/2 [3]: < 1 min

COC(=O)/C=C/CNC(=O)[C@@H](CNC(C)=O)Cc1ccccc1
Ratio (Papain (Carica papaya)): 6.6 M⁻¹ s⁻¹

N#CC(c1ccncc1)C(SCCO)c1ccccc1 (stereo not drawn)
t1/2 [3]: 4.6 min

CC(C)(C)c1cc(O)cc(Sc2ccc([N+](=O)[O-])cc2)c1O
K [2]: 2.3 ×10¹ /s

Cc1csc(C(C#N)C(SCCO)C2CC2)n1 (stereo not drawn)
t1/2 [3]: 4.8 min

Cc1csc(C(C#N)C(SCCO)c2ccccc2)n1 (stereo not drawn)
t1/2 [3]: < 1 min

CC1=CC[C@]23O[C@@]2(C)CC[C@@H]2[C@H](OC(=O)[C@H]2CN2CCNCC2)[C@@H]13
IC50 (518A2): 15 µM
IC50 (A-431): 4.4 µM
IC50 (A549): 15.7 µM
IC50 (HT-29): 15.1 µM
IC50 (MCF7): 15.1 µM

CCN(CC)c1ccc2cc(C(CC(=O)OC)SC[C@H](NC(=O)CC[C@H](N)C(=O)O)C(=O)NCC(=O)O)c(=O)oc2c1 (stereo partly drawn)
K [8]: 0 M⁻¹ s⁻¹

CC1OC(O)CC1SC[C@@H](N)C(=O)O (stereo partly drawn)
K [5]: 25 M⁻¹ s⁻¹

COC(=O)/C=C/CNC(=O)C1CCN(C(=O)CC(C)C)CC1
Ratio (Papain (Carica papaya)): 0.5 M⁻¹ s⁻¹

N#CC(C(N)=O)C(SCCO)c1ccsc1 (stereo not drawn)
Kd [4]: 11900 µM

CC(CC=O)SC[C@H](NC(=O)CC[C@H](N)C(=O)O)C(=O)NCC(=O)O (stereo partly drawn)
K [5]: 0.78 M⁻¹ s⁻¹

COc1ccc(C(=O)C(Br)C(SCCN)c2ccc(OC)c(OC)c2)c(OC)c1 (stereo not drawn)
K [9]: 2.9 M⁻¹ s⁻¹

O=C1/C(=C/c2ccccc2O)CC/C1=C\c1ccccc1O
Activity [6]: 87 M⁻¹ s⁻¹
DTT second-order rate constant [7]: 29 M⁻¹ s⁻¹

NC(=O)CI
K [10]: 25 M⁻¹ s⁻¹

COc1ccc(C(=O)NC/C=C/S(C)(=O)=O)cc1
K [11]: 2.8 ×10⁻³ /s

CS(=O)(=O)c1ccc(-c2cccc(C(SCCO)C(C#N)C(N)=O)c2)cc1 (stereo not drawn)
Kd [4]: 200 µM

CC(CC=O)SC[C@H](N)C(=O)O (stereo partly drawn)
K [5]: 8.9 M⁻¹ s⁻¹

O=C(/C=C/c1ccc(O)cc1)/C=C/c1ccc(O)cc1
Activity [6]: 0.001 M⁻¹ s⁻¹
DTT second-order rate constant [7]: 0.014 M⁻¹ s⁻¹

CS(=O)(=O)/C=C/CNC(=O)c1ccc([N+](=O)[O-])cc1
K [11]: 4 ×10⁻³ /s

N[C@@H](CSCCC=O)C(=O)O
K [5]: 220 M⁻¹ s⁻¹

C#CC(=O)OCC [PROPYNOIC ACID ETHYL ESTER]
K [1]: 105 M⁻¹ s⁻¹
EC50 (Tetrahymena pyriformis): 17 µM

C=C1C(=O)O[C@@H]2[C@H]3C(C)=CC[C@@]34O[C@@]4(C)CC[C@@H]12 [ARGLABIN]
IC50 (518A2): 6.72 µM
IC50 (A-431): 4.48 µM
IC50 (A549): 2.21 µM
IC50 (HT-29): 7 µM
IC50 (MCF7): 2.33 µM

N#CC(C(N)=O)C(SCCO)c1c[nH]cn1 (stereo not drawn)
Kd [4]: 32800 µM

COC(=O)/C=C/CNC(=O)[C@H](CNC(C)=O)Cc1ccccc1
Ratio (Papain (Carica papaya)): 0.4 M⁻¹ s⁻¹

COc1ccc(C(=O)C(C#N)C(SCCN)c2ccc(OC)c(OC)c2)c(OC)c1 (stereo not drawn)
K [9]: 5700 M⁻¹ s⁻¹

COC(=O)/C=C/CNC(=O)c1ccc([N+](=O)[O-])cc1
K [11]: 5.9 ×10⁻⁴ /s
